Patent US5573936A, “Process for purifying echinocandin B deacylase” (Eli Lilly and Company, priority 1995, dated 1996)
*1 amine or outer side, *2 acyl side, *3 side chain or, on linkers, in order; H or OH if unused. Where a SMILES comes first, the peptide text is derived from it. Bridges are numbered along the chain shown (N, C = ends). [ ]: non-standard residue; d: D form. The star is where a group is joined. ξ: configuration not given here. ξOrn(4,5-diOH) = O=C(C(CC(O)C(O)N[*:3])N[*:1])[*:2]; ξhTyr(βξ-OH,γξ-OH) = NC(C(=O)O)C(O)C(O)c1ccc(O)cc1; ξPro(3ξ-OH,4ξ-Me) = CC1CNC(C(=O)O)C1O; X2 = O=C(C=Cc1ccc(N[*:1])cc1)[*:2]; Palmitoyl = CCCCCCCCCCCCCCCC(=O)*; X6 = O=C(Cc1ccc(N[*:1])cc1)[*:2]; X3 = CCCCCCCCOc1ccc(CC(=O)*)cc1; X5 = CCCCCCCOc1ccc(CCC(=O)*)cc1; X1 = CCCCCC=CCC=CCCCCCCCC(=O)*; X4 = CCCCCOc1ccc(CCC(=O)*)cc1; Hyp = O=C(O)[CH]1C[CH](O)CN1; Lauroyl = CCCCCCCCCCCC(=O)*; 4Abz = Nc1ccc(C(=O)O)cc1

Target: T1, ECB deacylase (Actinoplanes utahensis, UniProt P29958)
T1 construct: ECB deacylase is an 81-kilodalton (KD) heterodimer comprising 63-KD and 18 KD subunits; made in house; host or cells: Actinoplanes utahensis (native producer, not recombinant); enzyme solubilized from whole cells with salt and purified
T1 sequence (P29958 230-786 limits assumed): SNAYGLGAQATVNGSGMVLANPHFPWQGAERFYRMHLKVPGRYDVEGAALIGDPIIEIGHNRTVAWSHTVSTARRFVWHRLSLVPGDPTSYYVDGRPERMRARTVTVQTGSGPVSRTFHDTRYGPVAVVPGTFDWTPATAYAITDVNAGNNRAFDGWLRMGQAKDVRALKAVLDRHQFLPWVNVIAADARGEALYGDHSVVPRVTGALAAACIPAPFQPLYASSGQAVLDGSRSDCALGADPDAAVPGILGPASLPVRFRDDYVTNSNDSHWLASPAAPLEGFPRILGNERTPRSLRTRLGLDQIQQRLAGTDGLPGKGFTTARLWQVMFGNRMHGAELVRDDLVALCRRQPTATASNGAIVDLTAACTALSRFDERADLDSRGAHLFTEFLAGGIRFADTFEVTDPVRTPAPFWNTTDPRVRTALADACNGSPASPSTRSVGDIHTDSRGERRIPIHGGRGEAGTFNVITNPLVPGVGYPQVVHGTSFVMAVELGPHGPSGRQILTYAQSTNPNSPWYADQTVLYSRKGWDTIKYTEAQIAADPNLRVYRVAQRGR
T1 sequence (P29958 35-214 limits assumed): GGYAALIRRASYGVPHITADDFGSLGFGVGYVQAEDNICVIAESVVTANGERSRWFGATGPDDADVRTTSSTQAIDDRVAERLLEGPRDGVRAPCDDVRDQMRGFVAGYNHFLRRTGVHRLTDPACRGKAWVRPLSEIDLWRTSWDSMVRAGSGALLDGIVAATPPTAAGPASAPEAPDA
Experiment: ECB deacylase assay (formation of ECB nucleus by HPLC)
Format: biochemical
Details: for percent activity relative to the deacylase activity of 100% for ECB itself: substrate specificity
Protocol: The assay employed herein for determining and measuring deacylase activity utilizes echinocandin B as substrate. A typical reaction mixture of 1 ml for ECB deacylase assay contained […] of ECB and 0.000003 to 0.003 unit of the enzyme in 0.05M KH2 PO4, pH 6.0, in the presence of 0.68M KCl and 15% DMSO to effect solution of the ECB. The enzymatic reaction was initiated by addition of the enzyme and was continued for 20 min at 60° C. before being interrupted by the addition of phosphoric acid. After a low-speed centrifugation to remove precipitated protein, the deacylase activity was determined by monitoring the formation of ECB nucleus at 225 nm using HPLC.
HPLC components were IBM PS/2 Model 80 and Color Display (IBM, Armonk, N.Y.), a Water 715 Ultra WISP Sample Processor (Waters Associates, Milford, Mass.), and a Beckman System Gold Programmable Solvent Module 126 and Scanning Detector Module 167 (Beckman, Fullerton, Calif.).
The ECB nucleus was eluted from an Apex Octadecyl 3 μ column (4.6×10 cm) (Jones Chromatography, Littleton, Co.) with a mobile phase of 3.9% CH3 CN/0.1% trifluoroacetic acid and a flow rate of 1 ml/min. The nucleus formation was linear with time during the assays. […] As used herein one unit of enzyme activity is defined as the amount of the deacylase required to cause formation of one μmole of the ECB nucleus per minute from ECB under the above described reaction conditions.

| Molecule | percent activity relative to the deacylase activity of 100% for ECB itself (purified deacylase) [%] | substrate of the purified deacylase (in words) (purified deacylase) | further results |
| --- | --- | --- | --- |
| CCCCCCCCCCCC(=O)Nc1ccc(C=CC(=O)NC2CC(O)C(O)NC(=O)C3C(O)C(C)CN3C(=O)C(C(C)O)NC(=O)C(C(O)C(O)c3ccc(O)cc3)NC(=O)C3CC(O)CN3C(=O)C(C(C)O)NC2=O)cc1 (stereo not drawn) (Lauroyl-[X2][ξOrn(4,5-diOH)]T[Hyp][ξhTyr(βξ-OH,γξ-OH)]T[ξPro(3ξ-OH,4ξ-Me)]; lactam 2-C; configuration not given here) | 15 |  |  |
| CCCCCCCCCCCC(=O)Nc1ccc(CC(=O)NC2CC(O)C(O)NC(=O)C3C(O)C(C)CN3C(=O)C(C(C)O)NC(=O)C(C(O)C(O)c3ccc(O)cc3)NC(=O)C3CC(O)CN3C(=O)C(C(C)O)NC2=O)cc1 (stereo not drawn) (Lauroyl-[X6][ξOrn(4,5-diOH)]T[Hyp][ξhTyr(βξ-OH,γξ-OH)]T[ξPro(3ξ-OH,4ξ-Me)]; lactam 2-C; configuration not given here) | 5 |  |  |
| CCCCCCCCOc1ccc(CC(=O)NC2CC(O)C(O)NC(=O)C3C(O)C(C)CN3C(=O)C(C(C)O)NC(=O)C(C(O)C(O)c3ccc(O)cc3)NC(=O)C3CC(O)CN3C(=O)C(C(C)O)NC2=O)cc1 (stereo not drawn) (X3-[ξOrn(4,5-diOH)]T[Hyp][ξhTyr(βξ-OH,γξ-OH)]T[ξPro(3ξ-OH,4ξ-Me)]; lactam 1-C; configuration not given here) | 30 |  |  |
| CCCCCOc1ccc(CCC(=O)NC2CC(O)C(O)NC(=O)C3C(O)C(C)CN3C(=O)C(C(C)O)NC(=O)C(C(O)C(O)c3ccc(O)cc3)NC(=O)C3CC(O)CN3C(=O)C(C(C)O)NC2=O)cc1 (stereo not drawn) (X4-[ξOrn(4,5-diOH)]T[Hyp][ξhTyr(βξ-OH,γξ-OH)]T[ξPro(3ξ-OH,4ξ-Me)]; lactam 1-C; configuration not given here) | 12 |  |  |
| CCCCCCCOc1ccc(CCC(=O)NC2CC(O)C(O)NC(=O)C3C(O)C(C)CN3C(=O)C(C(C)O)NC(=O)C(C(O)C(O)c3ccc(O)cc3)NC(=O)C3CC(O)CN3C(=O)C(C(C)O)NC2=O)cc1 (stereo not drawn) (X5-[ξOrn(4,5-diOH)]T[Hyp][ξhTyr(βξ-OH,γξ-OH)]T[ξPro(3ξ-OH,4ξ-Me)]; lactam 1-C; configuration not given here) | 30 |  |  |
| CCCCCCCCCCCC(=O)Nc1ccc(C(=O)NC2CC(O)C(O)NC(=O)C3C(O)C(C)CN3C(=O)C(C(C)O)NC(=O)C(C(O)C(O)c3ccc(O)cc3)NC(=O)C3CC(O)CN3C(=O)C(C(C)O)NC2=O)cc1 (stereo not drawn) ({Lauroyl-4Abz}-[ξOrn(4,5-diOH)]T[Hyp][ξhTyr(βξ-OH,γξ-OH)]T[ξPro(3ξ-OH,4ξ-Me)]; lactam 1-C; configuration not given here) |  | substrates |  |
| CCN1C(=O)C=CC1=O [N-ethylmaleimide (NEM), N-ethylmaleimide] |  |  | enhancement of the rate of conversion of ECB to ECB nucleus (purified deacylase): 6-7 fold |
| CCCCCCCCCCCCCCCC(=O)NC1CC(O)C(O)NC(=O)C2C(O)C(C)CN2C(=O)C(C(C)O)NC(=O)C(C(O)C(O)c2ccc(O)cc2)NC(=O)C2CC(O)CN2C(=O)C(C(C)O)NC1=O (stereo not drawn) [aculeacin] (Palmitoyl-[ξOrn(4,5-diOH)]T[Hyp][ξhTyr(βξ-OH,γξ-OH)]T[ξPro(3ξ-OH,4ξ-Me)]; lactam 1-C; configuration not given here) |  | deacylates |  |
| CCCCCC=CCC=CCCCCCCCC(=O)NC1CC(O)C(O)NC(=O)C2C(O)C(C)CN2C(=O)C(C(C)O)NC(=O)C(C(O)C(O)c2ccc(O)cc2)NC(=O)C2CC(O)CN2C(=O)C(C(C)O)NC1=O (stereo not drawn) [echinocandin B] (X1-[ξOrn(4,5-diOH)]T[Hyp][ξhTyr(βξ-OH,γξ-OH)]T[ξPro(3ξ-OH,4ξ-Me)]; lactam 1-C; configuration not given here) | 100 | deacylates | ratio of ECB nucleus formed to ECB disappearance (reaction stoichiometry): about 52.4%; Vmax for the ECB reaction (purified enzyme): 10 to 11 µmol/min/mg |
| Daptomycin |  | cleaves the fatty acid side chain |  |
